Results published in patent US20080293696A1, “2-Aminoarylcarboxamides Useful as Cancer Chemotherapeutic Agents” (Bayer Pharmaceuticals Corporation, priority 2004, published 2008).
Counter-ions that a name gives are not always drawn.

Each compound was assayed on PAKT/PKB (p-(S473) AKT) in H209 small cell lung carcinoma cells stimulated with Stem Cell Factor (assay: PAKT/PKB Cytoblot Assay with H209 cells (SCF-stimulated p-(S473) AKT)). Settings: Homo sapiens, NCI-H209, compound 1 hour, SCF 25 ng/mL 5 minutes, group: between 500 nM and 1 μM (units in value).
Type: cell-based
In short: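 H209 SCLC cells kept overnight in RPMI with 0.1% BSA were pretreated 1 h at 37 °C with compound (0.01–10 μM final), then stimulated with SCF 25 ng/mL for 5 min. After formaldehyde/methanol fixation, p-(S473) AKT was detected in-cell with HRP secondary and ECL chemiluminescence, and IC50 was derived.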

Row | IC50 [nM] | SMILES
1 | 500 to 1000 | O=C(Nc1ccc2c(c1)OC(F)(F)O2)c1ccccc1NCc1ccnc(NCCc2ccccc2)c1 [Example 150, N-(2,2-difluoro-1,3-benzodioxol-5-yl)-2-[({2-[(2-phenylethyl)amino]pyridin-4-yl}methyl)amino]benzamidetrifluoroacetate]
2 | 500 to 1000 | CCN1CCCC1CNC(=O)c1cc(CNc2ccccc2C(=O)Nc2ccc3c(c2)OC(F)(F)O3)ccn1 (stereo not shown) [Example 84, 4-{[(2-{[(2,2-difluoro-1,3-benzodioxol-5-yl)amino]carbonyl}phenyl)amino]methyl}-N-[(1-ethylpyrrolidin-2-yl)methyl]pyridine-2-carboxamide]
3 | 500 to 1000 | N#Cc1cc(CNc2cc(F)ccc2C(=O)Nc2ccc3c(c2)OC(F)(F)C(F)(F)O3)ccn1 [Example 28, 2-{[(2-cyanopyridin-4-yl)methyl]amino}-4-fluoro-N-(2,2,3,3-tetrafluoro-2,3-dihydro-1,4-benzodioxin-6-yl)benzamide]
4 | 500 to 1000 | CCCCN(CCCC)CCCNC(=O)c1cc(CNc2ccccc2C(=O)Nc2ccc3c(c2)OC(F)(F)O3)ccn1 [Example 105, N-[3-(dibutylamino)propyl]-4-{[(2-{[(2,2-difluoro-1,3-benzodioxol-5-yl)amino]carbonyl}phenyl)amino]methyl}pyridine-2-carboxamide]

Same assay, conditions: Homo sapiens, NCI-H209, compound 1 hour, SCF 25 ng/mL 5 minutes, group: between 1 and 3 μM

Row | IC50 [nM] | SMILES
5 | 1000 to 3000 | CCOc1ccc(CCNC(=O)c2cc(CNc3ccccc3C(=O)Nc3ccc4c(c3)OC(F)(F)O4)ccn2)cc1OC [Example 125, 4-{[(2-{[(2,2-difluoro-1,3-benzodioxol-5-yl)amino]carbonyl}phenyl)amino]methyl}-N-[2-(4-ethoxy-3-methoxyphenyl)ethyl]pyridine-2-carboxamide]
6 | 1000 to 3000 | CN(CCCNC(=O)c1cc(CNc2ccccc2C(=O)Nc2ccc3c(c2)OC(F)(F)O3)ccn1)c1ccccc1 [Example 107, 4-{[(2-{[(2,2-difluoro-1,3-benzodioxol-5-yl)amino]carbonyl}phenyl)amino]methyl}-N-{3-[methyl(phenyl)amino]propyl}pyridine-2-carboxamide]

Same assay, conditions: Homo sapiens, NCI-H209, compound 1 hour, SCF 25 ng/mL 5 minutes, group: less than 500 nM

Row | IC50 [nM] | SMILES
7 | < 500 | COCCCNc1cc(CNc2ccccc2C(=O)Nc2ccc3c(c2)OC(F)(F)O3)ccn1 [Example 136, N-(2,2-difluoro-1,3-benzodioxol-5-yl)-2-[({2-[(3-methoxypropyl)amino]pyridin-4-yl}methyl)amino]benzamide trifluoroacetate]
8 | < 500 | CCNC(=O)Nc1cc(CNc2ccccc2C(=O)Nc2ccc3c(c2)OC(F)(F)O3)ccn1 [Example 162, N-(2,2-difluoro-1,3-benzodioxol-5-yl)-2-{[(2-{[(ethylamino)carbonyl]amino}pyridin-4-yl)methyl]amino}benzamide]
9 | < 500 | O=C(Nc1ccc2c(c1)OC(F)(F)C(F)(F)O2)c1ncccc1NCc1ccncc1 [Example 17, 3-[(Pyridin-4-ylmethyl)amino]-N-(2,2,3,3-tetrafluoro-2,3-dihydro-1,4-benzodioxin-6-yl)pyridine-2-carboxamide]
10 | < 500 | NC(=O)c1cc(CNc2ccccc2C(=O)Nc2ccc3c(c2)OC(F)(F)O3)ccn1 [Example 75, 4-{[(2-{[(2,2-Difluoro-1,3-benzodioxol-5-yl)amino]carbonyl}phenyl)amino]methyl}pyridine-2-carboxamide]
11 | < 500 | O=C(NCc1ccco1)Nc1cc(CNc2ccccc2C(=O)Nc2ccc3c(c2)OC(F)(F)O3)ccn1 [Example 173, N-(2,2-difluoro-1,3-benzodioxol-5-yl)-2-({[2-({[(2-furylmethyl)amino]carbonyl}amino)pyridin-4-yl]methyl}amino)benzamide]
12 | < 500 | N#Cc1cc(CNc2ccccc2C(=O)Nc2ccc3c(c2)OC(F)(F)C(F)(F)O3)ccn1 [Example 22, 2-{[(2-cyanopyridin-4-yl)methyl]amino}-N-(2,2,3,3-tetrafluoro-2,3-dihydro-1,4-benzodioxin-6-yl)benzamide]
13 | < 500 | Cc1ccc(C(=O)Nc2ccc3c(c2)OC(F)(F)C(F)(F)O3)c(NCc2ccncc2)n1 [Example 13, 6-methyl-2-[(pyridin-4-ylmethyl)amino]-N-(2,2,3,3-tetrafluoro-2,3-dihydro-1,4-benzodioxin-6-yl)nicotinamide]
